Like-named read-outs stand apart in the source and are kept apart here.
Columns and labels:
[1] = PAMPA blood brain barrier permeability; type: in vitro ADME
Method: The ability of compounds, especially those intended to act in the CNS, to penetrate the blood-brain barrier (BBB) is an important property to consider in the initial stages of drug candidate screening. The PAMPA assay is a commonly used test to assess the passive permeation of the BBB [17]. In our study, caffeine was used as a highly permeable compound. […] After 5 h of incubation at room temperature, the results were analyzed by LC-MS, and the permeability coefficients (Pe) were calculated.
For permeability evaluation, a PAMPA Gentest™ pre-coated […] system, provided by Corning (Tewksbury, MA, USA), was used. The precise procedure was previously described. The permeability coefficient Pe was calculated based on the given equations. Concentrations of the tested compounds in the apical and basolateral wells were determined by LC/MS analysis using an internal standard.

[2] = test system: carrageenan-induced edema in mice; parameters: method as in PMID 25735490; details: 100 mg/kg ip, cited from earlier work
[3] = target: other adenosine receptors; details: cited from earlier work
human adenosine A1R = target: T1, human adenosine A1R (Homo sapiens, UniProt P30542); details: cited from earlier work; for Ki: human
T1 construct: expressed in transfected cells; host or cells: CHO cells
T1 sequence (P30542 1-326): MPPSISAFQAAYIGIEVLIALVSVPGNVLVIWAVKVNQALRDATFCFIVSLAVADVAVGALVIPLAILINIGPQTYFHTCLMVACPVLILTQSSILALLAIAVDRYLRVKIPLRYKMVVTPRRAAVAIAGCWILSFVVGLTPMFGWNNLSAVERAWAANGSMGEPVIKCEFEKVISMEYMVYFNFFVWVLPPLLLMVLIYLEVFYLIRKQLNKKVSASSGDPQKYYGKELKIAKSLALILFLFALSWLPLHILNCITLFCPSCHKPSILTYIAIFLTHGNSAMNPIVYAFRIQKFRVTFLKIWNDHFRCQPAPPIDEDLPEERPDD

human adenosine A2AR = target: T2, human adenosine A2AR (Homo sapiens, UniProt P29274); details: cited from earlier work
T2 construct: expressed in transfected cells; host or cells: CHO cells

[4] = parameters: method as in PMID 30254599; details: LPD and ibotenate models; cited from earlier work
[5] = parameters: method as in PMID 21235574; details: animal studies; cited from earlier work
[6] = test system: carrageenan-induced edema in rats; parameters: method as in PMID 32629282; details: 20 mg/kg ip; cited from earlier work
human adenosine A3R = target: T3, human adenosine A3R (Homo sapiens, UniProt P0DMS8); parameters: method as in PMID 32629282; details: cited from earlier work
T3 construct: expressed in transfected cells; host or cells: CHO cells
T3 sequence (P0DMS8 1-318): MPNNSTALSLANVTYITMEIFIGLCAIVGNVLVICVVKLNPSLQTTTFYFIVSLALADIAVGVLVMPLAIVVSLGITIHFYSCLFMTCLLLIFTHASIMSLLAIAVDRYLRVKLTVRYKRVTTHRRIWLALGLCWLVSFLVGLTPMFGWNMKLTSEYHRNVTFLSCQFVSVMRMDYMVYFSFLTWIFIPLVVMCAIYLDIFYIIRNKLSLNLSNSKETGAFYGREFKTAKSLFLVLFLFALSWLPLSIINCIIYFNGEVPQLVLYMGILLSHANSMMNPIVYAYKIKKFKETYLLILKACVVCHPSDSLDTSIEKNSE

human adenosine A2BR = target: T4, human adenosine A2BR (Homo sapiens, UniProt P29275); parameters: method as in PMID 32629282; details: cited from earlier work
T4 construct: expressed in transfected cells; host or cells: CHO cells
T4 sequence (P29275 1-332): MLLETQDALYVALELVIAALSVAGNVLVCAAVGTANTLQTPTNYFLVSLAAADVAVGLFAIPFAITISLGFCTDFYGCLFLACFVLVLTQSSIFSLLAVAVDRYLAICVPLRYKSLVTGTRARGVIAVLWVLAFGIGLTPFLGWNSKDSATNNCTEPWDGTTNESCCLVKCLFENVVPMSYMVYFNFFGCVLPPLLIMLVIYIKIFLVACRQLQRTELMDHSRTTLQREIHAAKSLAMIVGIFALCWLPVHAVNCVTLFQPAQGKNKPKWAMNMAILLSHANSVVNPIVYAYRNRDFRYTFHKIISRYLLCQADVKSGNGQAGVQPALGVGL

[7] = selectivity towards other adenosine receptors

T2 sequence (P29274 whole entry): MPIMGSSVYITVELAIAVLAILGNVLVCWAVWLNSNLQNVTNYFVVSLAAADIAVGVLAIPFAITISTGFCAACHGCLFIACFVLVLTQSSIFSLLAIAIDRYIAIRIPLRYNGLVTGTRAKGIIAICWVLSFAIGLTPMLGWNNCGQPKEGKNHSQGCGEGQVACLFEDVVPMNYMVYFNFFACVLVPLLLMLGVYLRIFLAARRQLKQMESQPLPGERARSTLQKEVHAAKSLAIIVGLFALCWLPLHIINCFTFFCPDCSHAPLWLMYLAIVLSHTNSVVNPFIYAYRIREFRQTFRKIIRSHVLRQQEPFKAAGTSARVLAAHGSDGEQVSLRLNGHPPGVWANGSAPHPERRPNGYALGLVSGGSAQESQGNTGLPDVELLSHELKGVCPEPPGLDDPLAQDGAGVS

## Cn1c(=O)c2c(ncn2C)n(C)c1=O [Caffeine, reference compound]
[1]
  Drug Retention: 29.46%
[1]; 100 μM in PBS, 5 h, room temperature, triplicate, read-out: Pe ± SD
  Papp at 5 h, 100 μM: 6.57 ± 1.57 ×10⁻⁶ cm/s
[1]; read-out: Permeable
  Papp at 5 h, 100 μM: ≥ 1.5 ×10⁻⁶ cm/s

## Cn1c(=O)c2c(nc3n2CCCN3CCc2ccc(O)cc2)n(C)c1=O [KD-114]
[2]; 1st, 2nd and 3rd hour
  reduction of edema volume: > 90%
[2]; control 64%
  edema at the first hour with the tested compound: 2%
[3]; [7]
  Ki: > 1000 nM
Human adenosine A1R; read-out: hA1R Ki
  Ki: > 25000 nM
Human adenosine A2AR; read-out: hA2AR Ki
  Ki: 230 nM

## Nc1nc2c(cnn2CCc2ccccc2)c2nc(-c3ccco3)nn12 [SCH-58261]
[4]
  effect on pro-inflammatory factors (IL-1ß, IL-6, iNOS, TNF alpha) (in words): caused a decrease in the above-mentioned cytokines
[5]
  effect in LPS-induced inflammation model (in words): beneficial effects

## CCn1c(=O)c2c(nc(NCc3cccc(OC)c3F)n2C)n(C)c1=O [compound 1]
[6]
  inhibition of edema, 2nd hour: 44%
  inhibition of edema, 3rd hour: 53%
[3]; [7]
  Ki: > 1000 nM
Human adenosine A1R; read-out: hA1R Ki
  Ki: > 1000 nM
Human adenosine A2AR; read-out: A2AR Ki
  Ki: 69 nM

## CCn1c(=O)c2c(nc(NCc3ccccc3Cl)n2C)n(C)c1=O [compound 2]
[3]
  Ki: > 1000 nM
Human adenosine A1R; 1 µM
  A1R % Inhibition ± SEM at 1 µM: 22 ± 1%
Human adenosine A1R; read-out: A1R Ki
  Ki: > 1000 nM
Human adenosine A2AR; read-out: A2AR Ki
  Ki: 71 ± 6 nM
Human adenosine A3R; 1 µM
  A3R % Inhibition ± SEM at 1 µM: 14 ± 1%
Human adenosine A3R; human
  Ki: > 1000 nM
Human adenosine A2BR; 1 µM
  A2BR % Inhibition ± SEM at 1 µM: 44 ± 10%
Human adenosine A2BR; human
  Ki: > 1000 nM
